Results as given in US8124610B2, “Sodium channel inhibitors” (Icagen Inc., priority 2007, dated 2012).

Biological target: T1, hSCN9A (Homo sapiens, UniProt Q15858)
T1 construct: expressed in transfected cells
Test: Whole-cell patch-clamp electrophysiology (conventional or PatchXpress), HEK cells expressing hSCN9A, estimated IC-50
Type: cell-based
Conditions: estimated IC-50, HEK cells expressing hSCN9A; class symbols or bounds; read-out: SCN9A EIC-50
Procedure, shortened: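 Stably transfected HEK cells recorded by whole-cell voltage clamp (manual or PatchXpress) at 22–24 °C in pH 7.4 HEPES-buffered extracellular solution. Cells held at the empirically determined inactivation V1/2 after an 8 s prepulse, then stepped to 0 mV for 20 ms; % inhibition from current amplitude before vs after compound.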

T1 sequence (Q15858 whole entry): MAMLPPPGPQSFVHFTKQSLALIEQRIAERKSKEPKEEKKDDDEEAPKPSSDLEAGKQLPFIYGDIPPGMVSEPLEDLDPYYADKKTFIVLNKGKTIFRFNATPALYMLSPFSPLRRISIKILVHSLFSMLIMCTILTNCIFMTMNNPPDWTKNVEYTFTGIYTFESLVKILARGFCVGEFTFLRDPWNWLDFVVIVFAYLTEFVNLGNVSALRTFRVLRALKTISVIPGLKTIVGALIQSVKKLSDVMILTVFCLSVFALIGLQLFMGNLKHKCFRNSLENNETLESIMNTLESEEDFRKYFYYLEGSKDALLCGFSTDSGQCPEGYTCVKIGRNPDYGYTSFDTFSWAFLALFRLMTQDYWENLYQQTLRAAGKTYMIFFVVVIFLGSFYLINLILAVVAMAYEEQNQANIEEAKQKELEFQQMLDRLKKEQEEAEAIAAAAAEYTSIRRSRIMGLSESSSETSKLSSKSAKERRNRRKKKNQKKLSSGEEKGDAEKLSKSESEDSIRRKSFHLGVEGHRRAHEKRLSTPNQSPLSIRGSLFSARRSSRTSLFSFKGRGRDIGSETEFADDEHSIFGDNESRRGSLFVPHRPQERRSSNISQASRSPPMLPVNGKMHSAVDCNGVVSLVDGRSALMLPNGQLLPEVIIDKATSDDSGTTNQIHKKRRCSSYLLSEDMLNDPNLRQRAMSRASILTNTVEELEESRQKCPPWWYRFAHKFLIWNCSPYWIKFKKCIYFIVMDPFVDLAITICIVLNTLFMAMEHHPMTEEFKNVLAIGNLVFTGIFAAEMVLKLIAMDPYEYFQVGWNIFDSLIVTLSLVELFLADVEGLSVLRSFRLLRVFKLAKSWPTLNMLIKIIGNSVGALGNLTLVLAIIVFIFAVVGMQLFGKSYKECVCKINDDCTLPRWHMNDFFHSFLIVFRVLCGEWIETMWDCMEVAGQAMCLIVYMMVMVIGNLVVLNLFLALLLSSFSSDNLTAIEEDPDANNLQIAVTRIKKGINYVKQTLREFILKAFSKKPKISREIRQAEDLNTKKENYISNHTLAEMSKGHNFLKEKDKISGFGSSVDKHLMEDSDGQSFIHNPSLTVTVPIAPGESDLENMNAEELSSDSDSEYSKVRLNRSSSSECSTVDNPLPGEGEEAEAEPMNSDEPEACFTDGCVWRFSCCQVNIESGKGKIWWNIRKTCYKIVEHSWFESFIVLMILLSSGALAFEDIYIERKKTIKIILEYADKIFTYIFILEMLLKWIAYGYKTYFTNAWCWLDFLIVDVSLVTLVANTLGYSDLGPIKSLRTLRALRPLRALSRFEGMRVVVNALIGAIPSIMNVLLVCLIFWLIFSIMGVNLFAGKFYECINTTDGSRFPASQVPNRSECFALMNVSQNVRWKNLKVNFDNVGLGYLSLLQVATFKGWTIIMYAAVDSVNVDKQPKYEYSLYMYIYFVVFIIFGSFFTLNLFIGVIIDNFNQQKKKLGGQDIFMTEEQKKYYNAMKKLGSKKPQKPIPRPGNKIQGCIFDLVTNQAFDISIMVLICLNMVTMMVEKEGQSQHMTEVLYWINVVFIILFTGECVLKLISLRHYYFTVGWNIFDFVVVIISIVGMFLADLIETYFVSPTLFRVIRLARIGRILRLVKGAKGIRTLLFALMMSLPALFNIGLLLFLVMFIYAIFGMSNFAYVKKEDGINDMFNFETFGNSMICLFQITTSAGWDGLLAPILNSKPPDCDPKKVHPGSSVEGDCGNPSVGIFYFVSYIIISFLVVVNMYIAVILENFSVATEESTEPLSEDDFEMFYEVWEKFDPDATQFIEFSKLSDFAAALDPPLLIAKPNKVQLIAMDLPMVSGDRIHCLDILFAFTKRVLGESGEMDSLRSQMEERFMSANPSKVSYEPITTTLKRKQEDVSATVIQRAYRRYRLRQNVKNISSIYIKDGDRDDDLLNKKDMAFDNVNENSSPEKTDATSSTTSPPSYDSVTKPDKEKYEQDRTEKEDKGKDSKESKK

Row | SMILES | IC50
1 | O=S(=O)(Nc1nccs1)c1ccc(Nc2nc3ccccc3o2)cc1 [Compound 114, 4-(benzo[d]oxazol-2-ylamino)-N-(thiazol-2-yl)benzenesulfonamide] | 2000 to 10000 nM
2 | O=S(=O)(Nc1nccs1)c1ccc(Nc2ccnn2-c2ccccc2)cc1F [Compound 168, 2-fluoro-4-(1-phenyl-1H-pyrazol-5-ylamino)-N-(thiazol-2-yl)benzenesulfonamide] | < 2000 nM
3 | COc1ccc(OC(F)(F)F)cc1Cn1cc(Nc2ccc(S(=O)(=O)Nc3nccs3)c(F)c2)cn1 [Compound 230, 2-fluoro-4-(1-(2-methoxy-5-(trifluoromethoxy)benzyl)-1H-pyrazol-4-ylamino)-N-(thiazol-2-yl)benzenesulfonamide] | < 2000 nM
4 | Cc1cc(Nc2ccc(S(=O)(=O)Nc3ncns3)c(F)c2)n(-c2ccccc2)n1 [Compound 240, 2-fluoro-4-(3-methyl-1-phenyl-1H-pyrazol-5-ylamino)-N-(1,2,4-thiadiazol-5-yl)benzenesulfonamide] | 2000 to 10000 nM
5 | Cc1cc(Nc2ccc(S(=O)(=O)Nc3nccs3)c(F)c2)n(-c2ccc(F)cc2C(F)(F)F)n1 [Compound 187, 2-fluoro-4-(1-(4-fluoro-2-(trifluoromethyl)phenyl)-3-methyl-1H-pyrazol-5-ylamino)-N-(thiazol-2-yl)benzenesulfonamide] | < 2000 nM
6 | CC(C)(C)n1nc(Cc2cccc(Cl)c2)cc1Nc1ccc(S(=O)(=O)Nc2nccs2)c(F)c1 [Compound 164, 4-(1-tert-butyl-3-(3-chlorobenzyl)-1H-pyrazol-5-ylamino)-2-fluoro-N-(thiazol-2-yl)benzenesulfonamide] | < 2000 nM
7 | Cc1cc(Nc2ccc(S(=O)(=O)Nc3ncc(C)s3)c(F)c2)n(-c2ccccc2)n1 [Compound 239, 2-fluoro-4-(3-methyl-1-phenyl-1H-pyrazol-5-ylamino)-N-(5-methylthiazol-2-yl)benzenesulfonamide] | 2000 to 10000 nM
8 | O=S(=O)(Nc1nncs1)c1ccc(Nc2ccn(Cc3ccc(Cl)cc3)n2)cc1F [Compound 232, 4-(1-(4-chlorobenzyl)-1H-pyrazol-3-ylamino)-2-fluoro-N-(1,3,4-thiadiazol-2-yl)benzenesulfonamide] | < 2000 nM
9 | Cc1cc(Nc2ccc(S(=O)(=O)Nc3nnc(C)o3)c(F)c2)n(-c2ccccc2)n1 [Compound 237, 2-fluoro-N-(5-methyl-1,3,4-oxadiazol-2-yl)-4-(3-methyl-1-phenyl-1H-pyrazol-5-ylamino)benzenesulfonamide] | 2000 to 10000 nM
10 | Cn1nc(C2(c3ccc(Cl)cc3)CC2)cc1Nc1ccc(S(=O)(=O)Nc2nccs2)cc1F [Compound 142, 4-(3-(1-(4-chlorophenyl)cyclopropyl)-1-methyl-1H-pyrazol-5-ylamino)-3-fluoro-N-(thiazol-2-yl)benzenesulfonamide] | < 2000 nM
11 | Cc1ccc(Cc2cc(Nc3ccc(S(=O)(=O)Nc4nccs4)cc3F)[nH]n2)cc1 [Compound 167, 3-fluoro-4-(3-(4-methylbenzyl)-1H-pyrazol-5-ylamino)-N-(thiazol-2-yl)benzenesulfonamide] | < 2000 nM
12 | O=C1CC(c2ccccc2)Cc2nc(Nc3ccc(S(=O)(=O)Nc4nccs4)cc3)sc21 (stereo not drawn) [Compound 135, 4-(7-oxo-5-phenyl-4,5,6,7-tetrahydrobenzo[d]thiazol-2-ylamino)-N-(thiazol-2-yl)benzenesulfonamide] | > 1000 nM
13 | CCc1nnc(NS(=O)(=O)c2ccc(Nc3ccn(Cc4ccc(Cl)cc4)n3)cc2F)s1 [Compound 255, 4-(1-(4-chlorobenzyl)-1H-pyrazol-3-ylamino)-N-(5-ethyl-1,3,4-thiadiazol-2-yl)-2-fluorobenzenesulfonamide] | > 1000 nM
14 | Cc1cccc(-n2nc(C)cc2Nc2ccc(S(=O)(=O)Nc3nccs3)c(F)c2)c1 [Compound 176, 2-fluoro-4-(3-methyl-1-m-tolyl-1H-pyrazol-5-ylamino)-N-(thiazol-2-yl)benzenesulfonamide] | < 2000 nM
15 | Cc1cc(Nc2cc(F)c(S(=O)(=O)Nc3nccs3)cc2F)n(-c2ccccc2)n1 [Compound 267, 2,5-difluoro-4-(3-methyl-1-phenyl-1H-pyrazol-5-ylamino)-N-(thiazol-2-yl)benzenesulfonamide] | < 2000 nM
16 | O=S(=O)(Nc1nncs1)c1ccc(Nc2ccn(Cc3ccc(Cl)cc3)n2)cc1C(F)(F)F [Compound 265, 4-(1-(4-chlorobenzyl)-1H-pyrazol-3-ylamino)-N-(1,3,4-thiadiazol-2-yl)-2-(trifluoromethyl)benzenesulfonamide] | < 2000 nM
17 | Cc1cc(Nc2ccc(S(=O)(=O)Nc3nccs3)cc2)n(Cc2ccncc2)n1 [Compound 131, 4-(3-methyl-1-(pyridin-4-ylmethyl)-1H-pyrazol-5-ylamino)-N-(thiazol-2-yl)benzenesulfonamide] | > 1000 nM
18 | Cc1nn(Cc2ccc(Cl)cc2)c(C)c1Nc1ccc(S(=O)(=O)Nc2nccs2)c(F)c1 [Compound 225, 4-(1-(4-chlorobenzyl)-3,5-dimethyl-1H-pyrazol-4-ylamino)-2-fluoro-N-(thiazol-2-yl)benzenesulfonamide] | 2000 to 10000 nM

Row | SMILES | IC50
19 | Cc1cc(Nc2ccc(S(=O)(=O)Nc3nc(C)ns3)c(F)c2)n(-c2ccccc2)n1 [Compound 236, 2-fluoro-N-(3-methyl-1,2,4-thiadiazol-5-yl)-4-(3-methyl-1-phenyl-1H-pyrazol-5-ylamino)benzenesulfonamide] | 2000 to 10000 nM
20 | Cc1nnc(NS(=O)(=O)c2ccc(Nc3ccn(Cc4ccc(Cl)cc4)n3)cc2F)o1 [Compound 261, 4-(1-(4-chlorobenzyl)-1H-pyrazol-3-ylamino)-2-fluoro-N-(5-methyl-1,3,4-oxadiazol-2-yl)benzenesulfonamide] | > 1000 nM
21 | Cn1nc(Cc2ccc(Cl)cc2)c(C#N)c1Nc1ccc(S(=O)(=O)Nc2nccs2)cc1 [Compound 119, 4-(3-(4-chlorobenzyl)-4-cyano-1-methyl-1H-pyrazol-5-ylamino)-N-(thiazol-2-yl)benzenesulfonamide] | 2000 to 10000 nM
22 | Cc1n[nH]c(Nc2ccc(S(=O)(=O)Nc3nccs3)cc2)c1-c1ccccc1 [Compound 124, 4-(3-methyl-4-phenyl-1H-pyrazol-5-ylamino)-N-(thiazol-2-yl)benzenesulfonamide] | > 1000 nM
23 | CN(C)C(=O)Cc1cc(Nc2ccc(S(=O)(=O)Nc3nccs3)c(F)c2)n(-c2ccccc2)n1 [Compound 213, 2-(5-(3-fluoro-4-(N-thiazol-2-ylsulfamoyl)phenylamino)-1-phenyl-1H-pyrazol-3-yl)-N,N-dimethylethanamide] | 2000 to 10000 nM
24 | COc1ccccc1-c1cc(Nc2ccc(S(=O)(=O)Nc3nccs3)c(F)c2)n(C)n1 [Compound 223, 2-fluoro-4-(3-(2-methoxyphenyl)-1-methyl-1H-pyrazol-5-ylamino)-N-(thiazol-2-yl)benzenesulfonamide] | < 2000 nM
25 | O=S(=O)(Nc1nccs1)c1ccc(Nc2nc(-c3ccc(Cl)cc3)cs2)cc1F [Compound 104, 4-(4-(4-chlorophenyl)thiazol-2-ylamino)-2-fluoro-N-(thiazol-2-yl)benzenesulfonamide] | > 1000 nM
26 | O=S(=O)(Nc1nccs1)c1ccc2c(cnn2Cc2ccc(OC(F)(F)F)cc2)c1 [Compound 274, N-(thiazol-2-yl)-1-(4-(trifluoromethoxy)benzyl)-1H-indazole-5-sulfonamide] | < 2000 nM
27 | Cc1cc(Nc2ccc(S(=O)(=O)Nc3nccs3)c(F)c2)n(-c2ccc(Cl)cc2)n1 [Compound 140, 4-(1-(4-chlorophenyl)-3-methyl-1H-pyrazol-5-ylamino)-2-fluoro-N-(thiazol-2-yl)benzenesulfonamide] | < 2000 nM
28 | Cc1nn(C)c(Nc2ccc(S(=O)(=O)Nc3nccs3)cc2)c1-c1ccccc1 [Compound 122, 4-(1,3-dimethyl-4-phenyl-1H-pyrazol-5-ylamino)-N-(thiazol-2-yl)benzenesulfonamide] | > 1000 nM
29 | Cn1nc(Cc2ccc(Cl)c(F)c2)cc1Nc1ccc(S(=O)(=O)Nc2nccs2)c(F)c1 [Compound 210, 4-(3-(4-chloro-3-fluorobenzyl)-1-methyl-1H-pyrazol-5-ylamino)-2-fluoro-N-(thiazol-2-yl)benzenesulfonamide] | < 2000 nM
30 | Cc1ccc(Cc2cc(Nc3ccc(S(=O)(=O)Nc4nccs4)cc3F)n(C(C)(C)C)n2)cc1 [Compound 158, 4-(1-tert-butyl-3-(4-methylbenzyl)-1H-pyrazol-5-ylamino)-3-fluoro-N-(thiazol-2-yl)benzenesulfonamide] | < 2000 nM
31 | NC(=O)c1cn(Cc2ccc(Cl)cc2)nc1Nc1ccc(S(=O)(=O)Nc2nccs2)c(F)c1 [Compound 221, 1-(4-chlorobenzyl)-3-(3-fluoro-4-(N-thiazol-2-ylsulfamoyl)phenylamino)-1H-pyrazole-4-carboxamide] | 2000 to 10000 nM
32 | CC(C)(C)n1nc(Cc2cccc(Cl)c2)cc1Nc1ccc(S(=O)(=O)Nc2nccs2)cc1 [Compound 194, 4-(1-tert-butyl-3-(3-chlorobenzyl)-1H-pyrazol-5-ylamino)-N-(thiazol-2-yl)benzenesulfonamide] | 2000 to 10000 nM
33 | O=S(=O)(Nc1nccs1)c1ccc(Nc2ncn(Cc3ccc(F)cc3Cl)n2)c(F)c1 [Compound 207, 4-(1-(2-chloro-4-fluorobenzyl)-1H-1,2,4-triazol-3-ylamino)-3-fluoro-N-(thiazol-2-yl)benzenesulfonamide] | < 2000 nM
34 | O=S(=O)(Nc1nc(C(F)(F)F)cs1)c1ccc(Nc2nc(Cc3ccc(Cl)cc3)cs2)cc1 [Compound 257, 4-(4-(4-chlorobenzyl)thiazol-2-ylamino)-N-(4-(trifluoromethyl)thiazol-2-yl)benzenesulfonamide] | 2000 to 10000 nM
35 | Cc1cc(Nc2ccc(S(=O)(=O)Nc3nccs3)cc2)n(Cc2ccc(Cl)cc2)n1 [Compound 128, 4-(1-(4-chlorobenzyl)-3-methyl-1H-pyrazol-5-ylamino)-N-(thiazol-2-yl)benzenesulfonamide] | 2000 to 10000 nM
36 | Cc1cc(Nc2ccn(Cc3ccc(Cl)cc3)n2)ccc1S(=O)(=O)Nc1nccs1 [Compound 271, 4-(1-(4-chlorobenzyl)-1H-pyrazol-3-ylamino)-2-methyl-N-(thiazol-2-yl)benzenesulfonamide] | 2000 to 10000 nM
